Tests used:
[1] = test system: transplanted tumor of human breast cancer cell MCF-7; assay: MCF-7 transplanted tumor in nude mice
Experimental: (§1) Then cell concentration was adjusted to 1×10^7/ml with matrigel, then each nude mouse was inoculated subcutaneously with 0.2 ml of cells at its right armpit and recorded as the first day of inoculation. When the tumor grows to be greater than or equal to 100 mm^3, the mice were randomly divided into 11 groups with 6 mice in each group: a model group, a cyclophosphamide group, isovaleryl spiramycin I groups with doses of 25, 50 and 100 mg/kg, isovaleryl spiramycin II groups with doses of 25, 50 and 100 mg/kg, and isovaleryl spiramycin III groups with doses of 25, 50 and 100 mg/kg. Each group was continuously administered intragastrically for 30 days with a dose of 20 ml/kg. The mice were sacrificed the next day after drug withdrawal and the indicators were tested. The long diameter and short diameter of the tumor, and the body weight of each mouse were recorded every 3 days from drug administration to nude mouse sacrifice.
(§2) The body weight of the nude mice and the long diameter (a) and short diameter (b) of the transplanted tumor were measured every 3 days, and the tumor volume (v), relative tumor volume (RTV) and relative tumor proliferation rate (T/C) are calculated respectively according to the following formulas, wherein V=a×b^2/2; RTV=V/V0 (V0 is the tumor volume before administration, V is the tumor volume before sacrifice), and T/C (%)=treatment group RTV/model control group RTV×100%.
(§3) Each mouse was weighed and sacrificed. After the tumor was completely stripped off from the body of the mouse, the non-tumor tissues such as blood stains and fat were removed to weigh the tumor and calculate the tumor growth inhibition rate. The average tumor weight of each group of mice is used as an indicator of efficacy. Tumor growth inhibition rate (%)=(1−the average tumor weight of the treatment group/the average tumor weight of the model group)×100%.

[2] = test system: transplanted tumor of HT-29 cells; assay: HT-29 transplanted tumor in nude mice; conditions: for Inhibition Rate (%) / Tumor Weight: HT-29 nude mice; for Tumor Volume (mm3) (d30): d 30
Experimental: as §1, with “group:” for “group: a model group, a cyclophosphamide group,”
as §2, §3

[3] = test system: transplanted tumor of mouse Lewis lung cancer; assay: Transplanted tumor of mouse Lewis lung cancer; conditions: for Tumor Volume (mm3) (d 1) / Tumor Volume (mm3) (d30) / Relative Tumor Proliferation Rate (T/C) / Relative Tumor Volume (RTV): title prints KM mouse H22 cells; for Tumor Volume (mm3) (d30): d 30; for Body Weight (g) (d1) / Body Weight (g) (d 15): mouse, in vivo
Experimental: Lewis lung cancer cells were cultured in a RPMI 1640 culture medium containing 10% fetal bovine serum at 37° C. in a 5% CO2 incubator. The cells in the logarithmic growth phase were subjected to trypsinization with 0.25% trypsin, then the cells were collected to be centrifugated to remove the obtained supernatant, then were washed twice with sterile normal saline. […] The Lewis cells were adjusted to 1×10^7/mL in concentration and stored in ice water. 75% ethanol was used to disinfect the skin under the right armpits of the mice, and each C57BL/6 mouse was soon inoculated subcutaneously with 0.2 ml of the cells at its right armpit.
In the Lewis lung cancer model, the mice inoculated with the tumor were randomly divided into groups with 10 mice in each group the next day of inoculation. The groups included: a model control group, a positive drug cyclophosphamide control group (CTX, 30 mg/kg), isovaleryl spiramycin I groups with doses of 13, 26 and 52 mg/kg; isovaleryl spiramycin II groups with doses of 13, 26 and 52 mg/kg; isovaleryl spiramycin III groups with doses of 13, 26 and 52 mg/kg. Each group was continuously administered intragastrically for 15 days with a dose of 20 ml/kg.
The tumor-bearing mice were weighed and sacrificed the next day after the last administration. The subcutaneous tumors were dissected and weighed. The average tumor weight of each group is calculated, and the tumor inhibition rate is calculated.
Tumor inhibition rate=(1−T/C)×100%
T: average tumor weight of the drug-administered group; C: average tumor weight of the blank control group.

[4] = MCF-7, 25 mg/kg (low dose) i.g. 30 days
[5] = MCF-7, 50 mg/kg (medium dose) i.g. 30 days
[6] = MCF-7, 100 mg/kg (high dose) i.g. 30 days
[7] = HT-29, high dose (100 mg/kg in method) i.g. 30 days
[8] = HT-29, low dose (25 mg/kg in method) i.g. 30 days
[9] = HT-29, medium dose (50 mg/kg in method) i.g. 30 days

## COC1C(OC(C)=O)CC(=O)OC(C)CC=CC=CC(OC2CCC(N(C)C)C(C)O2)C(C)CC(CC=O)C1OC1OC(C)C(OC2CC(C)(O)C(OC(=O)CC(C)C)C(C)O2)C(N(C)C)C1O (stereo not drawn) [Isovaleryl spiramycin II, isovaleryl spiramycin II]
[1]; [4]
  Inhibition Rate (tumor growth inhibition rate): 20.55%
  Relative Tumor Proliferation Rate (T/C): 79.23%
  Relative Tumor Volume (RTV): 13.87 ± 1.53
  Tumor Volume (d 1): 104.64 ± 10.69 mm3
  Tumor Volume (d 30): 1450.36 ± 218.20 mm3
  Tumor Weight: 2.16 ± 0.51 g
[1]; [5]
  Inhibition Rate (tumor growth inhibition rate): 41.72%
  Relative Tumor Proliferation Rate (T/C): 60.58%
  Relative Tumor Volume (RTV): 10.60 ± 1.10
  Tumor Volume (d 1): 105.81 ± 11.20 mm3
  Tumor Volume (d 30): 1113.42 ± 71.14 mm3
  Tumor Weight: 1.58 ± 0.51 g
[1]; [6]
  Inhibition Rate (tumor growth inhibition rate): 56.81%
  Relative Tumor Proliferation Rate (T/C): 44.45%
  Relative Tumor Volume (RTV): 7.78 ± 1.71
  Tumor Volume (d 1): 119.69 ± 14.63 mm3
  Tumor Volume (d 30): 914.69 ± 130.26 mm3
  Tumor Weight: 1.17 ± 0.47 g
[1]; MCF-7, 100 mg/kg (high dose) i.g. 30 days, listed as isovaleryl spiramycin II
  Relative Tumor Proliferation Rate (T/C): 44.44%
[1]; MCF-7, low, medium and high doses, P<0.05
  tumor volume and relative tumor volume compared with the model group: significantly lower
[1]; mouse, in vivo
  mouse weight compared with the model group: no significant changes
[2]; [7]
  Relative Tumor Proliferation Rate (T/C): 44.05%
  tumor growth inhibition rate: 55.74%
[2]; [8]
  Relative Tumor Proliferation Rate (T/C): 84.18%
  tumor growth inhibition rate: 16.24%
[2]; HT-29, low, medium and high doses, P<0.05
  tumor volume and relative tumor volume compared with the model group: significantly lower
[2]; [9]
  Relative Tumor Proliferation Rate (T/C): 79.34%
  tumor growth inhibition rate: 32.41%
[2]; 25 mg/kg
  Inhibition Rate (%): 16.24%
  Tumor Weight: 1.97 ± 0.34 g
[2]; 50 mg/kg
  Inhibition Rate (%): 32.41%
  Tumor Weight: 1.59 ± 0.49 g
[2]; 100 mg/kg
  Inhibition Rate (%): 55.74%
  Tumor Weight: 1.04 ± 0.40 g
[2]; dose 25 mg/kg
  Relative Tumor Proliferation Rate (T/C): 84.18%
  Relative Tumor Volume (RTV): 12.13 ± 3.40
  Tumor Volume (mm3) (d 1): 163.26 ± 38.80 mm3
  Tumor Volume (mm3) (d30): 1885.85 ± 219.49 mm3
[2]; dose 50 mg/kg
  Relative Tumor Proliferation Rate (T/C): 79.34%
  Relative Tumor Volume (RTV): 11.43 ± 5.13
  Tumor Volume (mm3) (d 1): 142.56 ± 22.44 mm3
  Tumor Volume (mm3) (d30): 1568.80 ± 603.77 mm3
[2]; dose 100 mg/kg
  Relative Tumor Proliferation Rate (T/C): 44.05%
  Relative Tumor Volume (RTV): 6.35 ± 2.87
  Tumor Volume (mm3) (d 1): 156.45 ± 37.20 mm3
  Tumor Volume (mm3) (d30): 921.49 ± 299.38 mm3
[2]; mouse, in vivo
  mouse weight compared with the model group: no significant changes
[2]; mouse, in vivo, 25 mg/kg
  Body Weight (g) (d1): 21.04 ± 1.28 g
  Body Weight (g) (d30): 20.88 ± 1.29 g
[2]; mouse, in vivo, 50 mg/kg
  Body Weight (g) (d1): 21.36 ± 1.35 g
  Body Weight (g) (d30): 20.9 ± 1.29 g
[2]; mouse, in vivo, 100 mg/kg
  Body Weight (g) (d1): 20.80 ± 0.89 g
  Body Weight (g) (d30): 21.53 ± 1.08 g
[3]; 13, 26 and 52 mg/kg i.g. 15 days
  growth of Lewis lung cancer in mice: significantly inhibit
[3]; dose 12.5 mg/kg
  Tumor Volume (mm3) (d 1): 104.18 ± 19.49 mm3
  Tumor Volume (mm3) (d30): 1304.48 ± 379.51 mm3
  Relative Tumor Proliferation Rate (T/C): 80.51
  Relative Tumor Volume (RTV): 12.89 ± 4.69
[3]; dose 13 mg/kg
  Inhibition Rate (%): 38.67%
  Tumor Weight: 0.98 ± 0.37 g
[3]; dose 25 mg/kg
  Tumor Volume (mm3) (d 1): 103.63 ± 19.46 mm3
  Tumor Volume (mm3) (d30): 1119.26 ± 338.67 mm3
  Relative Tumor Proliferation Rate (T/C): 68.97
  Relative Tumor Volume (RTV): 11.04 ± 4.07
[3]; dose 26 mg/kg
  Inhibition Rate (%): 44.26%
  Tumor Weight: 0.89 ± 0.18 g
[3]; dose 50 mg/kg
  Tumor Volume (mm3) (d 1): 103.38 ± 18.03 mm3
  Tumor Volume (mm3) (d30): 798.42 ± 189.19 mm3
  Relative Tumor Proliferation Rate (T/C): 48.76
  Relative Tumor Volume (RTV): 7.81 ± 1.76
[3]; dose 52 mg/kg
  Inhibition Rate (%): 56.34%
  Tumor Weight: 0.70 ± 0.21 g
[3]; 13 mg/kg
  Body Weight (g) (d1): 20.33 ± 0.64 g
  Body Weight (g) (d 15): 22.17 ± 1.74 g
[3]; 26 mg/kg
  Body Weight (g) (d1): 19.62 ± 1.43 g
  Body Weight (g) (d 15): 22.38 ± 0.96 g
[3]; 52 mg/kg
  Body Weight (g) (d1): 20.05 ± 0.67 g
  Body Weight (g) (d 15): 22.75 ± 0.95 g

— US20200163984A1, “USE OF ISOVALERYL SPIRAMYCIN I, II AND/OR III IN MANUFACTURING MEDICAMENT FOR TREATING AND/OR PREVENTING TUMOR, AND MEDICAMENT” (SHENYANG FUYANG PHARMACEUTICAL TECHNOLOGY CO., LTD., priority 2017, published 2020)
